From patent US20100130432A1, “Non-Natural Amino Acids and Neurotensin Analogues Thereof” (priority 2005, published 2010) come the findings set out here.

Where two headings read alike, the source gives them in different places. Non-standard residues stand in square brackets, D forms with d. Residues, ends and D or L forms follow the SMILES beside them. *: point of attachment. Tle = CC(C)(C)[C@H](N)C(=O)O; X1 = C[C@@H](CCCCCN)C(=O)*

Data set [1] in a line: in vivo. As to conditions: rat.
Data set [2] is described as follows: Brain distribution of ABS201 (LC/MS/MS). An excerpt: (§1) At selected time points, blood was removed or brain harvested and the concentration of the peptide analog determined using LC/MS/MS.
(§2) These samples were then used for the determination of plasma and brain drug levels by LC/MS/MS for estimating BBB penetration and pharmacokinetic parameters.

The subject of data set [3] is rats.
Source text: Chronic Testing Protocols. […] Induced hypothermia was monitored and tested for significance as described above. […] The test protocol for day five was as described above.
Data set [4] in a line: Pharmacokinetics of ABS201 in blood/plasma (LC/MS/MS).
Source text: as §1, §2

Data set [5] deals with L5178Y TK+/−mouse lymphoma cells. As to conditions: initial data, with and without S9.
Data set [6] is described as follows: Plasma stability, quantitative MALDI-MS assay. Type of data set: in vitro ADME.
Data set [7] relates to adrenergic (alpha1, alpha 2, beta), dopamine, histamine (H1, H2, H3), muscarinic (central, peripheral), nicotinic, opioid (nonselective), orphanin, serotonin …. The settings on record: 10^−9, 10^−7 10^−5 M.

`CC(C)C[C@H](NC(=O)[C@@H](NC(=O)[C@H](Cc1ccc(O)cc1)NC(=O)[C@@H]1CCCN1C(=O)[C@H](CCCNC(=N)N)NC(=O)[C@@H](C)CCCCCN)C(C)(C)C)C(=O)O` [ABS201, hLys-Arg-Pro-Tyr-t-Leu-Leu] (X1-RPY[Tle]L-OH): the MTD at 48 hr in data set [1] (iv) is ≥ 100 mg/kg; in data set [1] (po) it was ≥ 500 mg/kg. For the same compound, the levels in brain entry was “below the LLOD at all times” in data set [2] (IV 1 mg/kg and PO 30 mg/kg); “below the LLOD at all times” in data set [2] (IV 5 mg/kg); “detected in brains of 2 of 3 animals” in data set [2] (oral 50 mg/kg, 15 minutes post administration). Further, the “dose tolerance” value is listed as “No” in data set [3] (10x ED50 administered daily over 5 days); “not observed” in data set [3] (I.P. 5 days at 5× the ED50, hypothermia and amphetamine-induced locomotion). Also, the antinociception entry in data set [3] (summary of behavioral effects) was “not antinociceptive”. In addition, the “time by which plasma levels decreased below the LLOD” value in data set [4] (IV 1 mg/kg) was ≤ 45 min. For the same compound, the “clearance as % of rat hepatic blood flow” value in data set [4] (IV 5 mg/kg) turned out to be 74.02%. Besides, the “time measurable in whole blood” value in data set [4] (IV 5 mg/kg) is on record as “up to 120 minutes”. Besides, the “time detectable in the blood and brain” value in data set [4] (IV 5 mg/kg and oral 50 mg/kg) was “up to 120 minutes”. Besides, the plasma levels entry in data set [4] (oral 30 mg/kg) is given as “below the LLOD at all times”. In addition, the “levels in whole blood” value in data set [4] (oral 50 mg/kg) is on record as “below the LLOD at all times”. This compound also registered a Vd in data set [4] (rat, in vivo, iv, 5 mg/kg) of 0.87 ± 0.27 L/kg. The compound further showed a clearance in data set [4] (rat, in vivo, iv, 5 mg/kg) of 40.8 mL/min/kg. Also, the “mouse lymphoma study result” value in data set [5] was “inactive”. The half-life in data set [6] was > 167 h. The “displacement of the receptors' endogenous substrate” value in data set [7] is given as “No displacement”.
